The target of this experiment is aminoglycoside 2''-nucleotidyltransferase ANT(2'')-Ia (Klebsiella pneumoniae). Put plainly: growth inhibition of ANT(2'')-Ia E. coli with gentamicin, ANT(2'')-Ia inhibitor project, OD600 growth (AID 1159619). Conditions: E. coli over-expressing ANT(2'')-Ia with gentamicin, 18 h.

Activity calls are given as the source filed them. The rule behind the calls is not given here.

As a reminder, the AC50 is the midpoint of the concentration-response curve, whichever way the signal moves.

Consider `CCNC(=O)O[C@H]1CN[C@H](C#Cc2cc3ncnc(Nc4ccc(OCc5cccc(F)c5)c(Cl)c4)c3s2)C1`, for which the result was inactive.

In the case of `N#Cc1cccc(Nc2ncc(-c3ccccc3)o2)c1`, the result was inactive.

`Nc1nc(-c2ccccn2)c(-c2ccc3ncccc3n2)s1`: the outcome was inactive.

On to `CCN(CC)S(=O)(=O)c1ccc(OC)c(Nc2ncc(-c3ccccc3)o2)c1`, for which the result was inactive.

`O=C1NC(=O)C(c2ccccc2Cl)=C1Nc1cccc(O)c1`: the result was inactive.

With `CS(=O)(=O)CCNCc1ccc(-c2ccc3ncnc(Nc4ccc(OCc5ccccc5)cc4)c3c2)o1`, the outcome was inactive.

As for `COc1cc(Nc2ncc3c(C)nc(-c4cccc(C(F)(F)F)c4)n3n2)cc(OC)c1OC`, the outcome was inactive.

For the compound `CNC(=O)c1ncccc1Nc1nc(Nc2cc3c(cc2OC)CCCN3C(=O)CN(C)C)nc2[nH]ccc12`, the outcome was inactive.

`CCn1c(-c2nonc2N)nc2cncc(C(=O)N3CCNCC3)c21`: the outcome was inactive.

As to `CC1=C(C(=O)Nc2ccc3[nH]ncc3c2)C(c2ccc3ccccc3c2)CC(=O)N1` (centres undefined), the AC50 is 68.5 µM.

As for `O=S1CCN(Cc2ccc(-c3ccc4ncnc(Nc5ccc(OCc6ccccc6)c(F)c5)c4c3)o2)CC1`, the outcome was inactive.

On to `C[C@@H](Oc1cc(-n2cnc3ccc(OCC4CCN(C)CC4)cc32)sc1C(N)=O)c1ccccc1Cl`, for which the half-maximal activity concentration (AC50) is 57.4 µM.

In the case of `CCc1cccc(NC(=O)Nc2ccc(Oc3ccc4nc(NC(=O)OC)[nH]c4c3)cc2)c1`, the outcome was inactive.

Consider `COc1cc2c(cc1Nc1nc(Nc3ccsc3C(N)=O)c3cc[nH]c3n1)N(C(=O)CN(C)C)CCC2(C)C`, for which the result was inactive.

For the compound `COc1ccccc1Nc1ncc(-c2ccccc2)o1`, the result was inactive.

Take `COc1cc2ncn(-c3cc(OCc4ccccc4C(F)(F)F)c(C(N)=O)s3)c2cc1OC`: the result was inactive.

Turning to `COC(=O)Nc1nc2ccc(Oc3ccc(NC(=O)Nc4ccccc4)cc3)cc2[nH]1`, the result was inactive.

For the compound `Fc1ccc(-c2c(-c3ccncc3)nc3n2CCS3)cc1`, the result was inactive.

Consider `N#Cc1c(NC(=O)c2ccccc2F)sc2c1CCCC2`, for which the result was inactive.

As to `CNC(=O)c1cncc(/C=C/c2c(C)cccc2C)c1`, the result was inactive.

With `COc1cc2ncn(-c3cc(O[C@@H](C)c4ccccc4Cl)c(C(N)=O)s3)c2cc1OC`, the concentration at half-maximal activity (AC50) was 63.4 µM.

In the case of `COc1cccc(-n2ncc3c(N/N=C/c4cccc(F)c4)ncnc32)c1`, the outcome was inactive.

As to `O=C1NC(=O)C(c2cccc([N+](=O)[O-])c2)=C1Nc1cc(Cl)c(O)c(Cl)c1`, the outcome was inactive.

Turning to `COc1cc2c(cc1Nc1nc(Nc3ccsc3C(N)=O)c3cc[nH]c3n1)N(C(=O)CN(C)C)CCC2`, the outcome was inactive.

As for `NS(=O)(=O)c1cccc(N=Cc2c(O)[nH]c3ccccc23)c1`, the outcome was inactive.

Turning to `COc1cc2c(cc1Nc1nc(N3CCc4ccccc43)c3cc[nH]c3n1)N(C(=O)CN(C)C)CC2`, the result was inactive.

As for `Cc1ccc2[nH]c(O)c(N=Nc3ccc(S(N)(=O)=O)cc3)c2c1`, the result was inactive.

On to `O=S1CCN(Cc2ccc(-c3ccc4ncnc(Nc5ccc(OCc6ccccc6)c(Cl)c5)c4c3)o2)CC1`, for which the concentration at half-maximal activity (AC50) was 68 µM.

On to `NS(=O)(=O)c1ccc(N=Nc2c(O)[nH]c3cccc(CCc4ccncc4)c23)cc1`, for which the outcome was inactive.

Turning to `CCn1c(-c2nonc2N)nc2c(N3CCCC3)nccc21`, the outcome was inactive.

Consider `CCn1c(-c2nonc2N)nc2cncc(C(=O)N3CC[C@H](N)C3)c21`, for which the result was inactive.

In the case of `COc1ccccc1Oc1nccc(-c2c(-c3ccc(F)cc3)ncn2C2CCNCC2)n1`, the result was inactive.

Consider `COc1cc2ncn(-c3cc(O[C@H](C)c4ccccc4Cl)c(C(N)=O)s3)c2cc1OC`, for which the AC50 is 71.5 µM.

Take `COc1ccc2[nH]c3c4[nH]c5ccc(OC)cc5c4c4c(c3c2c1)C(=O)NC4=O`: the result was inactive.

The values above are taken from PubChem BioAssay AID1159619 (McMaster CMCB, 2016).
